Source: US11524968B2, “Heterocyclic compound as a protein kinase inhibitor” (HK inno.N Corporation, priority 2017, dated 2022)

Target: JAK1 (Homo sapiens (Human), UniProt P23458)
Test: Analysis of JAK1 activity inhibition ability (ADP-Glo Kinase Assay)
Assay type: biochemical
Conditions: JAK1 enzyme, ADP-Glo luminescence, ATP 250 uM, IRS-itide substrate, 30° C. 40 minutes; read-out: IC50
How it was run: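 ADP-Glo luminescence read-out of ADP production, with IC50 taken as the concentration halving JAK1 activity relative to control. Enzyme was incubated 40 min at 30 °C with compound, IRS-itide (40 ng/mL) and ATP (250 uM), concentrations as prepared in pH 7.5 Tris-HCl/MgCl2/BSA/DTT buffer.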

JAK1, sequence (P23458 whole entry): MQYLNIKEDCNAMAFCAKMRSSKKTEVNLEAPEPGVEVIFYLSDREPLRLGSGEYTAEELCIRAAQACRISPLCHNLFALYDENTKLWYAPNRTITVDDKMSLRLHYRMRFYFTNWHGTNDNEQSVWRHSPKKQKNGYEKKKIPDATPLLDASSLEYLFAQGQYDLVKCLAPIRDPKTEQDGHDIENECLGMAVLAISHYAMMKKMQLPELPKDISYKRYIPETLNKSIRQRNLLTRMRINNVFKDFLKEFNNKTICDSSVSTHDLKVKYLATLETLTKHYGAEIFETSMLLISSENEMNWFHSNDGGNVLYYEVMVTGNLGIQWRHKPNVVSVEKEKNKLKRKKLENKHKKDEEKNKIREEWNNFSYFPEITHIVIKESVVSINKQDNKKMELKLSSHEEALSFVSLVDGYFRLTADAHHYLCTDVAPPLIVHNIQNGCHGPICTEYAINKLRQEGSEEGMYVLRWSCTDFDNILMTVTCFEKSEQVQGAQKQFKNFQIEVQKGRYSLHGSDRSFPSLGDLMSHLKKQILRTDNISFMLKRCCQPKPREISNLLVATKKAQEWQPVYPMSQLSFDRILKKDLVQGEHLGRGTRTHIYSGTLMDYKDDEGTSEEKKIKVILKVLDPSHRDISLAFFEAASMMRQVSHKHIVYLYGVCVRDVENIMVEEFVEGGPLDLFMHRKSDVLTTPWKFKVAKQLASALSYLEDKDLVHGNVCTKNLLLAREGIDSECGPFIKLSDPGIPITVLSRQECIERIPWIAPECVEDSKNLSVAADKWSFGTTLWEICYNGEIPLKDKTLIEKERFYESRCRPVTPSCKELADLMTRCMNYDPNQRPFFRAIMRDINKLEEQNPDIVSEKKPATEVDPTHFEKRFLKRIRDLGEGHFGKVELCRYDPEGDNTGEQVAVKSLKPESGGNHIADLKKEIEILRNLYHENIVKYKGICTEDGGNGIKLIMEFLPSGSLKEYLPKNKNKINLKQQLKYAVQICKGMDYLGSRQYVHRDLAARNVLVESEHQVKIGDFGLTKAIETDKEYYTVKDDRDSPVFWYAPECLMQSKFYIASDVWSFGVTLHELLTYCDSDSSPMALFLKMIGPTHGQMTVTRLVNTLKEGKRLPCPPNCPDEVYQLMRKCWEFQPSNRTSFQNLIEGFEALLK

| SMILES | IC50 |
| --- | --- |
| O=C(Nc1cc(-c2ccc(NC3CCN(C(=O)c4ccnc(F)c4)CC3)cc2)c2cc[nH]c2n1)C1CC1 [Example 509, N-(4-(4-((1-(2-fluoroisonicotinoyl)piperidin-4-yl)amino)phenyl)-1H-pyrrolo[2,3-b]pyridin-6-yl)cyclopropanecarboxamide] | > 200 nM |
| CC1CN(C(=O)c2ccncc2Cl)CC=C1c1cc(NC(=O)C2CC2)nc2[nH]ccc12 (stereo not drawn) [Example 376, N-(4-(1-(3-chloroisonicotinoyl)-3-methyl-1,2,3,6-tetrahydropyridin-4-yl)-1H-pyrrolo[2,3-b]pyridin-6-yl)cyclopropanecarboxamide] | 20 to 200 nM |
| N#Cc1ccc(S(=O)(=O)Nc2ccc(-c3cc(NC(=O)C4CC4)nc4[nH]ccc34)cc2)cn1 [Example 40, N-(4-(4-((6-cyanopyridine)-3-sulfonamido)phenyl)-1H-pyrrolo[2,3-b]pyridin-6-yl)cyclopropanecarboxamide] | 20 to 200 nM |
| O=C(Nc1cc(C2=CC3CCCC(C2)N3C(=O)c2ccnc(Cl)c2)c2cc[nH]c2n1)C1CC1 (stereo not drawn) [Example 367, N-(4-(9-(2-chloroisonicotinoyl)-9-azabicyclo[3.3.1]non-2-en-3-yl)-1H-pyrrolo[2,3-b]pyridin-6-yl)cyclopropanecarboxamide] | 20 to 200 nM |
| N#CCC(=O)N1C2C=C(c3cc(NC(=O)C4CC4)nc4[nH]ccc34)CC1CC2 (stereo not drawn) [Example 257, N-(4-(8-(2-cyanoacetyl)-8-azabicyclo[3.2.1]oct-2-en-3-yl)-1H-pyrrolo[2,3-b]pyridin-6-yl)cyclopropanecarboxamide] | < 20 nM |
| CC1CN(S(=O)(=O)Nc2ccc(-c3nc(NC(=O)C4CC4)nc4[nH]ccc34)cc2)CC(C)O1 (stereo not drawn) [Example 237, N-(4-(4-((2,6-dimethylmorpholine)-4-sulfonamido)phenyl)-7H-pyrrolo[2,3-d]pyrimidin-2-yl)cyclopropanecarboxamide] | > 200 nM |
| N#CCC(=O)N1CCN(c2nc(NC(=O)C3CC3)nc3[nH]ccc23)CC1 [Example 687, N-(4-(4-(2-cyanoacetyl)piperazin-1-yl)-7H-pyrrolo[2,3-d]pyrimidin-2-yl)cyclopropanecarboxamide] | > 200 nM |
| CN(C)S(=O)(=O)Nc1ccc(-c2nc(NC(=O)C3CC3)nc3[nH]ccc23)cc1 [Example 236, N-(4-(4-((N,N-dimethylsulfamoyl)amino)phenyl)-7H-pyrrolo[2,3-d]pyrimidin-2-yl)cyclopropanecarboxamide] | 20 to 200 nM |
| O=C(Nc1cc(C2=CC3CCC(C2)N3C(=O)NCC(F)(F)F)c2cc[nH]c2n1)C1CC1 (stereo not drawn) [Example 448, 3-(6-(cyclopropanecarboxamido)-1H-pyrrolo[2,3-b]pyridin-4-yl)-N-(2,2,2-trifluoroethyl)-8-azabicyclo[3.2.1]oct-2-ene-8-carboxamide] | < 20 nM |
| N#CCC1(N2CC=C(c3cc(NC(=O)C4CC4)nc4[nH]ccc34)CC2)CN(C2CCNCC2)C1 [Example 620, N-(4-(1-(3-(cyanomethyl)-1-(piperidin-4-yl)azetidin-3-yl)-1,2,3,6-tetrahydropyridin-4-yl)-1H-pyrrolo[2,3-b]pyridin-6-yl)cyclopropanecarboxamide] | > 200 nM |
| N#CCCCS(=O)(=O)Nc1ccc(-c2cc(NC(=O)C3CC3)nc3[nH]ccc23)cc1 [Example 52, N-(4-(4-((3-cyanopropyl)sulfonamido)phenyl)-1H-pyrrolo[2,3-b]pyridin-6-yl)cyclopropanecarboxamide] | < 20 nM |
| O=C(Nc1cc(-c2cnn(C3CN(S(=O)(=O)C(F)(F)F)C3)c2)c2cc[nH]c2n1)C1CC1 [Example 599, N-(4-(1-(1-((trifluoromethyl)sulfonyl)azetidin-3-yl)-1H-pyrazol-4-yl)-1H-pyrrolo[2,3-b]pyridin-6-yl)cyclopropanecarboxamide] | < 20 nM |
| C[C@@H]1CN(C(=O)CCl)CC=C1c1cc(NC(=O)C2CC2)nc2[nH]ccc12 [Example 401, (S)—N-(4-(1-(2-chloroacetyl)-3-methyl-1,2,3,6-tetrahydropyridin-4-yl)-1H-pyrrolo[2,3-b]pyridin-6-yl)cyclopropanecarboxamide] | 20 to 200 nM |
| O=C(Nc1cc(-c2cn(Cc3ccccc3)nn2)c2cc[nH]c2n1)C1CC1 [Example 481, N-(4-(1-benzyl-1H-1,2,3-triazol-4-yl)-1H-pyrrolo[2,3-b]pyridin-6-yl)cyclopropanecarboxamide] | 20 to 200 nM |
| CN(CC#N)C(=O)Cc1ccc(-c2cc(NC(=O)C3CC3)nc3[nH]ccc23)cc1 [Example 573, N-(4-(4-(2-((cyanomethyl)(methyl)amino)-2-oxoethyl)phenyl)-1H-pyrrolo[2,3-b]pyridin-6-yl)cyclopropanecarboxamide] | 20 to 200 nM |
| N#CCC(=O)N1C2CCC1CN(c1nc(Nc3ccccc3)nc3[nH]ccc13)C2 [Example 721, 3-oxo-3-(3-(2-(phenylamino)-7H-pyrrolo[2,3-d]pyrimidin-4-yl)-3,8-diazabicyclo[3.2.1]octan-8-yl)propanenitrile] | 20 to 200 nM |
| CC1CN(C(=O)c2ccncc2O)CC=C1c1cc(NC(=O)C2CC2)nc2[nH]ccc12 (stereo not drawn) [Example 377, N-(4-(1-(3-hydroxyisonicotinoyl)-3-methyl-1,2,3,6-tetrahydropyridin-4-yl)-1H-pyrrolo[2,3-b]pyridin-6-yl)cyclopropanecarboxamide] | > 200 nM |
| O=C(Nc1cc(-c2ccc(NS(=O)(=O)C3CCC3)c(F)c2)c2cc[nH]c2n1)C1CC1 [Example 78, N-(4-(4-(cyclobutanesulfonamido)-3-fluorophenyl)-1H-pyrrolo[2,3-b]pyridin-6-yl)cyclopropanecarboxamide] | < 20 nM |
| CCCS(=O)(=O)Nc1ccc(-c2cc(NC(=O)C3CC3)nc3[nH]ccc23)cc1F [Example 66, N-(4-(3-fluoro-4-(propylsulfonamido)phenyl)-1H-pyrrolo[2,3-b]pyridin-6-yl)cyclopropanecarboxamide] | < 20 nM |
| O=C(Nc1cc(C2=CCC(NC3CCN(C(=O)c4ccnc(F)c4)CC3)CC2)c2cc[nH]c2n1)C1CC1 (stereo not drawn) [Example 493, N-(4-(4-((1-(2-fluoroisonicotinoyl)piperidin-4-yl)amino)cyclohex-1-en-1-yl)-1H-pyrrolo[2,3-b]pyridin-6-yl)cyclopropanecarboxamide] | 20 to 200 nM |
| CCNC(=O)Nc1ccc(-c2nc(NC(=O)C3CC3)nc3[nH]ccc23)cc1 [Example 438, N-(4-(4-(3-ethylureido)phenyl)-7H-pyrrolo[2,3-d]pyrimidin-2-yl)cyclopropanecarboxamide] | > 200 nM |
| O=C(Cc1ccc(-c2cc(NC(=O)C3CC3)nc3[nH]ccc23)cc1)NC1CCS(=O)(=O)C1 (stereo not drawn) [Example 538, N-(4-(4-(2-((1,1-dioxidotetrahydrothiophen-3-yl)amino)-2-oxoethyl)phenyl)-1H-pyrrolo[2,3-b]pyridin-6-yl)cyclopropanecarboxamide] | 20 to 200 nM |
| O=C(Nc1cc(-c2ccc(NS(=O)(=O)c3ccc4c(c3)OCCO4)cc2)c2cc[nH]c2n1)C1CC1 [Example 38, N-(4-(4-((2,3-dihydrobenzo[b][1,4]dioxine)-6-sulfonamido)phenyl)-1H-pyrrolo[2,3-b]pyridin-6-yl)cyclopropanecarboxamide] | 20 to 200 nM |
| Cc1ncsc1C(=O)N1CC=C(c2cc(NC(=O)C3CC3)nc3[nH]ccc23)C(C)C1 (stereo not drawn) [Example 308, N-(4-(3-methyl-1-(4-methylthiazole-5-carbonyl)-1,2,3,6-tetrahydropyridin-4-yl)-1H-pyrrolo[2,3-b]pyridin-6-yl)cyclopropanecarboxamide] | 20 to 200 nM |
